Test results published in PubChem BioAssay (NCI).
Several values for one entry are separate records, joined by “and”; a condition that tells them apart may be missing. Equal entries are not always repeated.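 Values below derive from 48-hour exposures of cells grown in 96-well plates, with endpoints linearly interpolated between the two concentrations bracketing the appropriate inhibition level. GI50 marks 50% less growth. TGI is the concentration that stops growth completely.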 *1 amine or outer side, *2 acyl side, *3 side chain or, on linkers, in order; H or OH if unused. Where a SMILES comes first, the peptide text is derived from it. [ ]: non-standard residue; d: D form. X56 = CC[C@H](C)[C@H](OC(=O)[C@@H](C)[C@@H](CC)N[*:1])C(=O)[*:2]; X32 = C[C@H](N[*:1])C(=O)C(C)(C)C(=O)[*:2]; NMeY = CN[C@@H](Cc1ccc(O)cc1)C(=O)O; NMeL = CN[C@@H](CC(C)C)C(=O)O; NMeV = CN[C@H](C(=O)O)C(C)C

Assays:
Experiment in all cases: NCI tumour cell line growth inhibition, 48 h
[1] = test system: ACHN renal
[2] = test system: M14 melanoma
[3] = test system: SW-620 colon
[4] = test system: OVCAR-3 ovarian
[5] = test system: NCI-H226 lung
[6] = test system: SF-268 CNS
[7] = test system: UACC-257 melanoma
[8] = test system: SK-MEL-2 melanoma
[9] = test system: UO-31 renal
[10] = test system: HCT-116 colon

For `Fc1ccc2[nH]cc(SSc3c[nH]c4ccc(F)cc34)c2c1`, the GI50 [1] was 4.34 µM, the TGI [1] was 34.3 µM and the GI50 [2] was 5.29 µM. For the same molecule, the TGI [2] was over 100 µM, the GI50 [3] was 8.22 µM and the TGI [3] was 26 µM. For the same molecule, the GI50 [4] was 4.52 µM, the TGI [4] was 18.3 µM and the GI50 [5] was 2.7 µM. The TGI [5] was 7.86 µM, the GI50 [6] was 5.07 µM and the TGI [6] was 21.9 µM. It also gave a GI50 [7] of 8.51 µM, a TGI [7] of 25.3 µM and a GI50 [8] of 3.62 µM. The TGI [8] was 17 µM, the GI50 [9] was 4.83 µM and the TGI [9] was 52.3 µM. The GI50 [10] was 3.98 µM and the TGI [10] was over 100 µM.

`COc1cc(/C=C2\C(=O)Nc3cccc(Cl)c32)cc(OC)c1OC` showed a GI50 [1] of 53.2 µM, a TGI [1] of over 100 µM and a GI50 [2] of over 100 µM. It also gave a TGI [2] of over 100 µM, a GI50 [3] of over 100 µM and a TGI [3] of over 100 µM. It also gave a GI50 [4] of over 100 µM, a TGI [4] of over 100 µM and a GI50 [5] of over 100 µM. For the same molecule, the TGI [5] was over 100 µM, the GI50 [6] was over 100 µM and the TGI [6] was over 100 µM. It also gave a GI50 [7] of over 100 µM, a TGI [7] of over 100 µM and a GI50 [8] of over 100 µM. It also gave a TGI [8] of over 100 µM, a GI50 [9] of over 100 µM and a TGI [9] of over 100 µM. The GI50 [10] was over 100 µM and the TGI [10] was over 100 µM.

For `Cc1cc(N(CCCl)CCCl)ccc1/C=N/NC(=O)Cc1cc(=O)oc2cc(O)ccc12`, the TGI [1] was 40.3 µM, the TGI [2] was 35.1 µM and the TGI [3] was 66.9 µM. For the same molecule, the TGI [4] was 72.8 µM, the TGI [5] was 43.2 µM and the TGI [6] was 56.4 µM. It also gave a TGI [7] of 58.1 µM, a TGI [8] of over 100 µM and a TGI [9] of 47.2 µM. The TGI [10] was 40.5 µM.

With `CC(C)Nc1ncc2cc(Oc3ccc(F)cc3F)c(=O)n(C)c2n1` the GI50 [1] was over 25 µM, the TGI [1] was over 25 µM and the GI50 [2] was over 25 µM. It also gave a TGI [2] of over 25 µM, a GI50 [3] of over 25 µM and a TGI [3] of over 25 µM. For the same molecule, the GI50 [4] was over 25 µM, the TGI [4] was over 25 µM and the GI50 [5] was over 25 µM. The TGI [5] was over 25 µM, the GI50 [6] was over 23.7 µM and the TGI [6] was over 25 µM. For the same molecule, the GI50 [7] was over 25 µM, the TGI [7] was over 25 µM and the GI50 [8] was over 25 µM. For the same molecule, the TGI [8] was over 25 µM, the GI50 [9] was 5.17 µM and the TGI [9] was over 13.4 µM. The GI50 [10] was over 25 µM and the TGI [10] was over 25 µM.

Molecule `CC1(C)CC(Nc2ccc(Nc3ccccc3)cc2)CC(C)(C)N1` has a TGI [1] of 37.2 µM, a TGI [2] of 34.7 µM and a TGI [3] of 49 µM. It also gave a TGI [4] of 41.8 µM, a TGI [5] of 40.8 µM and a TGI [6] of over 85.4 µM. For the same molecule, the TGI [7] was 23.9 µM, the TGI [8] was 52.9 µM and the TGI [9] was 24.6 µM. It also gave a TGI [10] of 62.3 µM.

With `O=[N+]([O-])c1ccc2nc3ccccc3cc2c1` the TGI [1] was 14.9 µM, the TGI [2] was 18.1 µM and the TGI [3] was 14.3 µM. The TGI [4] was 1.3 µM, the TGI [5] was 8.97 µM and the TGI [6] was 83.4 µM. The TGI [7] was 5.86 µM, the TGI [8] was 27.8 µM and the TGI [9] was 16.7 µM. For the same molecule, the TGI [10] was 10.5 µM.

Work on `C=CCn1cc(C(=O)NC(=O)NCCCCCOC(=O)CCCCCCCCCCC(=O)OCCCCCNC(=O)NC(=O)c2cn(CC=C)c(=O)n(C)c2=O)c(=O)n(C)c1=O` yielded a TGI [1] of over 100 µM, a TGI [2] of over 100 µM and a TGI [3] of over 100 µM. The TGI [4] was over 100 µM, the TGI [5] was over 100 µM and the TGI [6] was over 100 µM. For the same molecule, the TGI [7] was over 100 µM, the TGI [8] was over 100 µM and the TGI [9] was over 100 µM. The TGI [10] was over 100 µM.

In the case of `NC(=O)c1ccc2nc3c(n2c1)C(=O)C(=O)c1ccccc1-3`, the GI50 [1] is reported as 1.34 µM, the TGI [1] is reported as 2.62 µM and the GI50 [2] is reported as 0.381 µM. For the same molecule, the TGI [2] was 1.23 µM, the GI50 [3] was 1.88 µM and the TGI [3] was 4.05 µM. The GI50 [4] was 0.24 µM, the TGI [4] was 0.63 µM and the GI50 [5] was 1.71 µM. The TGI [5] was 3.8 µM, the GI50 [6] was 0.436 µM and the TGI [6] was 1.66 µM. For the same molecule, the GI50 [7] was 0.57 µM, the TGI [7] was 1.78 µM and the GI50 [8] was 0.633 µM. For the same molecule, the TGI [8] was 1.91 µM, the GI50 [9] was 1.47 µM and the TGI [9] was 2.79 µM. It also gave a GI50 [10] of 0.327 µM and a TGI [10] of 1.21 µM.

Work on `COC(=O)C1C(OCc2ccccc2)C2CCC1(OC)C=C2C` (stereo not given) yielded a TGI [1] of over 100 µM, a TGI [2] of over 100 µM and a TGI [3] of over 100 µM. For the same molecule, the TGI [4] was over 100 µM, the TGI [5] was over 100 µM and the TGI [6] was over 100 µM. It also gave a TGI [7] of over 100 µM, a TGI [8] of over 93.7 µM and a TGI [9] of over 100 µM. It also gave a TGI [10] of over 100 µM.

Molecule `Cc1c(N=Cc2ccc(N(CCC#N)CCC#N)cc2)c(=O)n(-c2ccccc2)n1C` has a TGI [1] of 69.1 µM, a TGI [2] of over 100 µM and a TGI [3] of over 100 µM. For the same molecule, the TGI [4] was over 100 µM, the TGI [5] was over 100 µM and the TGI [6] was over 100 µM. The TGI [7] was over 100 µM, the TGI [8] was over 100 µM and the TGI [9] was over 100 µM. For the same molecule, the TGI [10] was over 100 µM.

`COc1cc(/C=C(\OC(C)=O)c2ccc3c(c2)OCO3)cc(OC)c1OC` gave a TGI [1] of 69.3 µM, a TGI [2] of 39.4 µM and a TGI [3] of over 100 µM. For the same molecule, the TGI [4] was 49.2 µM, the TGI [5] was 30.7 µM and the TGI [6] was 67.5 µM. It also gave a TGI [7] of 34 µM, a TGI [8] of 57.9 µM and a TGI [9] of 28.2 µM. It also gave a TGI [10] of 38.9 µM.

In the case of `Nc1nc(-c2cccc([N+](=O)[O-])c2)cc(-c2cc(-c3cccc([N+](=O)[O-])c3)nc(N)n2)n1`, the TGI [1] is reported as over 100 µM, the TGI [2] is reported as over 100 µM and the TGI [3] is reported as over 100 µM. For the same molecule, the TGI [4] was over 100 µM, the TGI [5] was over 100 µM and the TGI [6] was over 100 µM. For the same molecule, the TGI [7] was over 100 µM, the TGI [8] was over 100 µM and the TGI [9] was over 100 µM. For the same molecule, the TGI [10] was over 100 µM.

`CC[C@H](C)[C@@H]1OC(=O)[C@@H](C)[C@@H](CC)NC(=O)[C@H](C)NC(=O)C(C)(C)C(=O)[C@H](C)NC(=O)[C@H](Cc2ccc(OC)cc2)N(C)C(=O)[C@H](C(C)C)N(C)C(=O)CNC(=O)[C@H](CC(C)C)N(C)C(=O)CNC1=O` (cyclo(A[X56]G[NMeL]G[NMeV][NMeY](Me)[X32])) was tested, and the GI50 [1] was under 0.0165 µM, the TGI [1] was 0.332 µM and 0.0908 µM and the GI50 [2] was 0.0403 µM. For the same molecule, the TGI [2] was 2.02 µM and 0.786 µM, the GI50 [3] was under 0.0316 µM and the TGI [3] was over 39.1 µM. For the same molecule, the GI50 [4] was 0.0304 µM, the TGI [4] was 0.197 µM and 0.307 µM and the GI50 [5] was 0.0731 µM. The TGI [5] was 3.75 µM and 1.06 µM, the GI50 [6] was under 0.0161 µM and the GI50 [7] was 0.0248 µM. The TGI [8] was 0.438 µM and 2.68 µM, the TGI [9] was 0.383 µM and 0.428 µM and the TGI [10] was 11.3 µM.
